Test results as given in patent US9572760B2, “Uses of compounds and mixtures from Antrodia cinnamomea mycelia” (Simpson Biotech Co., Ltd., priority 2013, dated 2017).

How the values were obtained:
HSC [1] = assay: HSC proliferation by BrdU assay; assay type: cell-based; details: highest concentration (80 μM), 72 hours
Experimental: The Cell Proliferation ELISA, BrdU kit was designed to quantitate cell proliferation bases on the measurement of BrdU incorporation during DNA synthesis in proliferation cells. Briefly, cells (1×10^4 cells/well) were seeded in 100 μl medium in a 96-well plate (Nunc, Denmark) and cultured for 24 h to allow the cells to attach and then treated with three different concentrations ([…]) of either Compound A, B, C and D for 24 h, 48 h and 72 h and the plates were incubated in 37° C. After incubation, the culture medium was labeled with 10 μl/well BrdU (Roche Diagnostic Inc.), and the cells were reincubated for addition 16 h at 37° C. Labeling medium was removed using 10 min centrifuge at 200×g and blow dried. Cells were fixed using 200 μl FixDenat solution and incubated for 30 min at room temperature. Removing the FixDenat solution, 100 μl of anti-BrdU-POD was added and incubated for 90 min at room temperature. After the incubation period, microplates were washed three times with PBS buffer and 100 μl substrate solution was added and incubated for 30 min. Stop solution was added (25 μl of 1 M H2SO4) and absorbance of the samples was measured using ELISA reader at 450 nm.

B16F10 cells = assay: Melanin content in B16F10 cells after UV irradiation; assay type: cell-based, murine; details: 10 μM for 72 hrs prior to UV irradiation; UV alone 33.80±4.6% increase over non-UV cells (7.4±0.3 μg/mg protein)
Source text: (§1) The dermal fibroblast cell line CG1639 was obtained from the BCRC (Bioresource Collection and Research Center) and cultured in Dulbecco's modified Eagle media (DMEM, Gibco by Invitrogen) with 1% antibiotic antimycotic (Gibco by Invitrogen) and 15% fetal bovine serum (Gibco by Invitrogen). The fetal rat skin keratinocyte, FRSK cell line was obtained from the Japan HSRRB (Health Science Research Resources Bank) and cultured in Eagle's minimal essential media (MEM, Gibco by Invitrogen) supplemented with 10% fetal bovine serum (FBS) (Gibco by Invitrogen) and 1% antibiotic antimycotic (Gibco by Invitrogen). B16F10 cells, a murine melanoma cell line, were purchased from American Type Culture Collection (ATCC, Rockville, Md., USA) and was cultured in Eagle's Minimum Essential Medium (MEM; Sigma, St. Louis, Mo.) supplemented with 10% fetal bovine serum (FBS; HyClone Lab. Inc., Logan, Utah), 0.02% antibiotic-antimycotic liquid (penicillin, 10 000 U mL^−1; streptomycin, 10 000 μg mL^−1 and amphotericin B, 25 μg mL^−1; Invitrogen, Carlsbad, Calif.).
(§2) To investigate the induction of melanogenesis and the oxidative stress by direct UV irradiation, melanoma cells and keratocytes were irradiated with 8 J cm^−2 of UVA (FL15BLB, 352 nm, 15 W; Toshiba, Tokyo, Japan) and 10 mJ cm^−2 of UVB (G15T8E, 306 nm, 15 W; Sankyo Denki, Tokyo, Japan) in a HANKS' balanced salt solution (Sigma). The UV intensity was measured by using a Model UVX Digital Radiometer (UVP Inc., Upland, Calif.).
(§3) B16F10 and FRSK cells were exposed to Hepasim compounds A-D by two different concentrations (3 or 10 μM) for 72 hrs prior to UVA irradiation. DMEM was replaced with phosphate buffered saline (PBS) to avoid generation of medium-derived toxic photoproducts prior to UV irradiation. Cells were collected 24 hrs after UVA irradiation and assayed. For preparation of cell lysate, the harvested cells were pelleted by centrifugation and lysed in lysis buffer containing 50 mM Tris-HCl, 10 mM ethylene diaminetetraacetic acid (EDTA), 1% (v/v) Tri-ton X-100, phenylmethylsulfonyl fluoride (PMSF) (100 mg/ml) and pepstatin A (1 mg/ml) in DMSO and leupeptin (1 mg/ml) in H2O, pH 6.8. The cells were centrifuged at 10,000 rpm for 10 min and the total cell lysate was collected and stored at −80° C.
In order to measure the melanin contents, B16F10 cells were sonicated on ice and the mixture was centrifuged (25 000 g, 10 min, 4° C.). The supernatant was transferred, and pellets were dissolved in 0.85 N KOH at 60° C. for 20 min. Standard melanin (Sigma) was incubated in parallel. Spectrophotometric analysis of melanin content was then performed at an absorbance of 405 nm

HSC [2] = assay: HSC apoptosis by cell death detection ELISA; assay type: cell-based; details: highest concentration (80 μM), 72 hours
Experimental: Apoptosis was detected with a sandwich immunoassay system using a cell death detection ELISA kit (Roche Diagnostic Inc.). Roche's Cell Death Detection ELISA kit qualitatively and quantitatively detects the amount of cleaved DNA/histone complexes (nucleosomes) in a given sample using a sandwich-enzyme-immunoassay-based method. The cells (1×10^4 cells/well) were seeded in 100 μl medium in a 96-well plate (Nunc, Denmark) and cultured for 24 h to allow the cells to attach and then treated with three different concentrations (8 μM, 24 μM and 80 μM) of either Compound A, B, C and D for 24 h, 48 h and 72 h and the plates were incubated in 37° C. After incubation, the 96 well plates were centrifuged for 10 min at 200×g and removed supernatant and discard, then added 200 μl of lysis buffer per well using multipipetman and incubated 30 min at room temperature, microplates were centrifuged the lysate at 200×g for 10 min. After the centrifuge, 20 μl of the supernatant was transferred into the streptavidin-coated microplate, then added 80 μl of immunoreagent to each well. The microplate was covered with an adhesive foil and incubated on a shaker under gentle shaking for 2 hour at room temperature. After the incubation period, microplates were washed three times with 250-300 μl incubation buffer and 100 μl ABTS solution was added and incubated for 30 min or until color is sufficient for photometric. ABTS Stop solution was added and absorbance of the samples was measured using ELISA reader at 405 nm, reference wavelength at 490 nm.

tyrosinase = biological target: T1, tyrosinase (Mus musculus, UniProt P11344); assay: Cellular tyrosinase activity assay (L-DOPA oxidation) in B16F10 cells exposed to UV; assay type: cell-based, murine; details: UV alone 52.55±4.36% increase over non-UV control (3.0±0.5 U/mg protein)
T1 construct: endogenous in cells; host or cells: B16F10 murine melanoma cells (ATCC), total cell lysate
T1 sequence (P11344 19-533): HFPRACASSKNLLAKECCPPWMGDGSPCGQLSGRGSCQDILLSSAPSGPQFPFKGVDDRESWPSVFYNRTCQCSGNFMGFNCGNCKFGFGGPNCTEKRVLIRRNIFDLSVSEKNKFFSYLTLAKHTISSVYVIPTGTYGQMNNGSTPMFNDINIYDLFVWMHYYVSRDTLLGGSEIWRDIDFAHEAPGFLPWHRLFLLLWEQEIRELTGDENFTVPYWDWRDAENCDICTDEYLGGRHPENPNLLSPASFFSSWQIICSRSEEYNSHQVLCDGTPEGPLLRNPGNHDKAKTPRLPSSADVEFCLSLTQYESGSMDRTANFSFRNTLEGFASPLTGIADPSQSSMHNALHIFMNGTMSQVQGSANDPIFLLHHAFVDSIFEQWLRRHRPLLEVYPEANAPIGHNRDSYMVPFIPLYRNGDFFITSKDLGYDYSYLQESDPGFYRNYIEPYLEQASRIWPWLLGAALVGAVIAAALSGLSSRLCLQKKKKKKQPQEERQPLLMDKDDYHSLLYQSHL
Source text: as §1, §2, §3
The rate of L-DOPA oxidation was measured to assess cellular tyrosinase activity in B16F10 cells exposed to UV. The assay was performed as below described, 20 mM L-DOPA used as the substrates was added to each lysate in a 96-well plate and absorbance of dopachrome formation was measured spectrophotometrically at 475 nm every 10 min for 1 h at 37° C. by a spectrophotometer. The tyrosinase activity was calculated by comparison to a standard curve using tyrosinase (2034 U/mg) and was expressed as unit/mg protein. The data are expressed as a percentage of the tyrosinase activity (unit/mg protein) of non-irradiated and untreated control cells (100%).

Structure (SMILES) | HSC proliferation (BrdU assay) (HSC [1]) | melanin production in UV-irradiated B16F10 cells (B16F10 cells) | apoptosis of HSC (cell death detection assay) (HSC [2]) | tyrosinase activity in UV-irradiated B16F10 cells (tyrosinase; 3 μM) | tyrosinase activity in UV-irradiated B16F10 cells (tyrosinase; 10 μM)
CC(C)=CCOc1ccc([C@H]2C(=O)N(O)C(=O)[C@@H]2CC(C)C)cc1 (relative stereo) [Compound D, (3R*,4S*)-1-hydroxy-3-isobutyl-4-[4-(3-methyl-2-butenyloxy)phenyl]pyrrolidine-2,5-dione] | same but delayed | 26.32±2.3% | same but delayed | 38.5±4.5% | 29.25±2.6%
CC(C)=CCOc1ccc(C2=C(CC(C)C)C(=O)OC2=O)cc1 [Compound A, 3-isobutyl-4-[4-(3-methyl-2-butenyloxy)phenyl]furan-2,5-dione] | – | 23.25±5.5% | – | 43.50±3.5% | 26.75±2.3%
